The assay deals with 935938-334-R-J1-PDC complex spheroid viability. Briefly: Anticancer human tumor 935938-334-R-J1-PDC patient-derived small intestine adenocarcinoma cell line growth inhibition [POLQ]. To be noted: for viability, T/C: stronger effect = lower value. The method in brief: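 PDC + HUVEC + MSC complex spheroids; POLQ inhibitors ± partner drugs; top conc. at/near clinical Cmax, else 10 microM (SN-38 1 microM), half-log dilutions; 37 degrees C, 5% CO2.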

Where [1] appears, read: curve of first compound, second compound 0.0316 µM.
[2] abbreviates: curve of first compound, second compound 0.1 µM.
Setting [3] is: curve of first compound, second compound 0.316 µM.
Setting [4] is: curve of first compound, second compound 1 µM.
Where [5] appears, read: curve of first compound, second compound 3.16 µM.
Where [6] appears, read: curve of first compound, second compound 10 µM.
[7] abbreviates: second compound 0.0316 µM, first compound 0.0316 µM.
Setting [8] is: second compound 0.0316 µM, first compound 0.1 µM.
Setting [9] is: second compound 0.0316 µM, first compound 0.316 µM.
Where [10] appears, read: second compound 0.0316 µM, first compound 1 µM.
[11] abbreviates: second compound 0.0316 µM, first compound 3.16 µM.
Where [12] appears, read: second compound 0.0316 µM, first compound 10 µM.
The mark [13] stands for this setting: second compound 0.1 µM, first compound 0.0316 µM.
The mark [14] stands for this setting: second compound 0.1 µM, first compound 0.1 µM.
[15] abbreviates: second compound 0.1 µM, first compound 0.316 µM.
Setting [16] is: second compound 0.1 µM, first compound 1 µM.
Setting [17] is: second compound 0.1 µM, first compound 3.16 µM.
The mark [18] stands for this setting: second compound 0.1 µM, first compound 10 µM.
The mark [19] stands for this setting: second compound 0.316 µM, first compound 0.0316 µM.
Where [20] appears, read: second compound 0.316 µM, first compound 0.1 µM.
Where [21] appears, read: second compound 0.316 µM, first compound 0.316 µM.
Setting [22] is: second compound 0.316 µM, first compound 1 µM.
Where [23] appears, read: second compound 0.316 µM, first compound 3.16 µM.
Where [24] appears, read: second compound 0.316 µM, first compound 10 µM.
Setting [25] is: second compound 1 µM, first compound 0.0316 µM.
Setting [26] is: second compound 1 µM, first compound 0.1 µM.
The mark [27] stands for this setting: second compound 1 µM, first compound 0.316 µM.
Setting [28] is: second compound 1 µM, first compound 1 µM.
Where [29] appears, read: second compound 1 µM, first compound 3.16 µM.
Setting [30] is: second compound 1 µM, first compound 10 µM.
The mark [31] stands for this setting: second compound 3.16 µM, first compound 0.0316 µM.
[32] abbreviates: second compound 3.16 µM, first compound 0.1 µM.
[33] abbreviates: second compound 3.16 µM, first compound 0.316 µM.
The mark [34] stands for this setting: second compound 3.16 µM, first compound 1 µM.
Setting [35] is: second compound 3.16 µM, first compound 3.16 µM.
Where [36] appears, read: second compound 3.16 µM, first compound 10 µM.
[37] abbreviates: second compound 10 µM, first compound 0.0316 µM.
Where [38] appears, read: second compound 10 µM, first compound 0.1 µM.
Setting [39] is: second compound 10 µM, first compound 0.316 µM.
[40] abbreviates: second compound 10 µM, first compound 1 µM.
[41] abbreviates: second compound 10 µM, first compound 3.16 µM.
Setting [42] is: second compound 10 µM, first compound 10 µM.

Here are results for nine compounds from PubChem BioAssay AID1963829 (Molecular Pharmacology Branch, DTP, NCI, 2024).

Values joined by “and” are separate entries in the source; they are usually repeats but may differ in a detail not shown here. Equal entries are not always repeated.
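Also: spheroids exposed to drugs for seven days before viability read.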
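For viability, T/C in this document: 100% = DMSO vehicle control wells.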

The IC50 is the concentration at which inhibition is half-maximal. The viability, T/C is the ratio of treated to control. Turning to `COc1ccc([C@@H](O)c2cc(-c3ncnc4cc(N5CCOCC5)ccc34)c(F)cc2Cl)nn1` + Nc1ccc(C#CCN(C(=O)Cc2ncc(C(F)(F)F)cc2C(F)(F)F)c2ccc(F)cc2)nn1, the IC50 runs as follows: under setting [1], 6570 nM; under setting [2], 5840 nM; under setting [3], 5430 nM; under setting [4], 5240 nM; under setting [5], 3680 nM; under setting [6], 2040 nM. In addition, the viability, T/C was 87.1% under setting [7]; 81.3% under setting [8]; 98.4% under setting [9]; 102% under setting [10]; 59.2% under setting [11]; 44.7% under setting [12]. Moreover, the viability, T/C runs as follows: under setting [13], 120%; under setting [14], 98.5%; under setting [15], 105%; under setting [16], 109%; under setting [17], 73.7%; under setting [18], 29.4%. For the same compound, the viability, T/C runs as follows: under setting [19], 106%; under setting [20], 106%; under setting [21], 110%; under setting [22], 84.9%; under setting [23], 74.8%; under setting [24], 25%. In addition, the viability, T/C under setting [25] is 118%; the viability, T/C under setting [26] is 96.6%; the viability, T/C under setting [27] was 106%; the viability, T/C under setting [28] is 82.3%; the viability, T/C under setting [29] is 70.1%; the viability, T/C under setting [30] is 28.5%. The viability, T/C under setting [31] is 109%; the viability, T/C under setting [32] is 98.9%; the viability, T/C under setting [33] is 96.5%; the viability, T/C under setting [34] was 80.5%; the viability, T/C under setting [35] was 52.1%; the viability, T/C under setting [36] was 29.6%. The viability, T/C is 81.1% under setting [37]; 83.6% under setting [38]; 118% under setting [39]; 60.5% under setting [40]; 54% under setting [41]; 33.1% under setting [42].

For the compound `CC1COCCN1c1cc(C2(S(C)(=N)=O)CC2)nc(-c2ccnc3[nH]ccc23)n1` (stereo not drawn), the viability, T/C was 98.1% and 87.1% and 102% (compound 0.0316 µM); 112% and 108% and 84.7% (compound 0.1 µM); 80.3% and 107% and 90.2% (compound 0.316 µM); 85.9% and 79.2% and 65.2% (compound 1 µM); 46.4% and 41.8% and 49.7% (compound 3.16 µM); 24.2% and 18.7% and 17.1% (compound 10 µM). The IC50 (curve of compound) was 3130 nM and 2420 nM and 2820 nM.

For `CC1COCCN1c1cc(C2(O)CC3CCC(C2)O3)c2cnn(-c3ccn[nH]3)c2n1` (stereo not drawn) + Cc1cccc(N(C)C(=O)C2C(O)CCN2c2nc(C)cc(C(F)(F)F)c2C#N)c1, the IC50 runs as follows: under setting [1], 372 nM; under setting [2], 262 nM; under setting [3], 331 nM; under setting [4], 215 nM; under setting [5], 198 nM; under setting [6], 155 nM. Further, the viability, T/C runs as follows: under setting [7], 84%; under setting [8], 76.2%; under setting [9], 52.9%; under setting [10], 29.1%; under setting [11], 18.7%; under setting [12], 13.8%. Also, the viability, T/C under setting [13] was 101%; the viability, T/C under setting [14] is 90.3%; the viability, T/C under setting [15] was 40.1%; the viability, T/C under setting [16] was 25.8%; the viability, T/C under setting [17] was 17.7%; the viability, T/C under setting [18] was 9.91%. Moreover, the viability, T/C runs as follows: under setting [19], 66.2%; under setting [20], 92.2%; under setting [21], 51.3%; under setting [22], 24.8%; under setting [23], 18%; under setting [24], 13.3%. Moreover, the viability, T/C is 77.7% under setting [25]; 74.5% under setting [26]; 37% under setting [27]; 25.3% under setting [28]; 18.9% under setting [29]; 12.5% under setting [30]. The viability, T/C by setting is: under setting [31], 90.6%; under setting [32], 64.5%; under setting [33], 40.2%; under setting [34], 23.9%; under setting [35], 20.6%; under setting [36], 12.3%. For the same compound, the viability, T/C was 70.3% under setting [37]; 56.8% under setting [38]; 39.6% under setting [39]; 23.2% under setting [40]; 17.2% under setting [41]; 9.31% under setting [42].

As to `C=CC(=O)N1CCN(c2nc(=O)n(-c3c(C)ccnc3C(C)C)c3nc(-c4c(O)cccc4F)c(F)cc23)C(C)C1` (stereo not drawn), the viability, T/C reads like this: (compound 0.0316 µM) 83.1% and 99.4% and 81.4%; (compound 0.1 µM) 94.9% and 68.4% and 69.6%; (compound 0.316 µM) 89.5% and 99.7% and 67.9%; (compound 1 µM) 89.7% and 115% and 113%; (compound 3.16 µM) 102% and 110% and 112%; (compound 10 µM) 99.6% and 131% and 105%. Where the note is “curve of compound”, the concentration for half-maximal inhibition (IC50) was more than 10000 nM.

On to `C=CCn1c(=O)c2cnc(Nc3ccc(N4CCN(C)CC4)cc3)nc2n1-c1cccc(C(C)(C)O)n1`, for which the viability, T/C by setting is: (compound 0.00316 µM) 104% and 93.2% and 96.4%; (compound 0.01 µM) 122% and 109% and 68.7%; (compound 0.0316 µM) 98.9% and 94.2% and 106%; (compound 0.1 µM) 87.7% and 94.9% and 106%; (compound 0.316 µM) 90.8% and 93.2% and 71.3%; (compound 1 µM) 33.3% and 32.5% and 27.3%. Also, the IC50 (curve of compound) was 694 nM and 719 nM and 552 nM.

As for `Cc1cccc(N(C)C(=O)C2C(O)CCN2c2nc(C)cc(C(F)(F)F)c2C#N)c1` (stereo not drawn), the half-maximal inhibitory concentration (IC50) (compound alone, run of 11/27/2023) was more than 10000 nM and the IC50 (compound alone, run of 12/05/2023) was more than 10000 nM.

Turning to `O=C(Nc1ccc(O)c(NS(=O)(=O)c2ccc(F)cc2)c1)c1ccc(-c2ccccc2)cc1`, the viability, T/C was 105% and 85.8% and 92.8% (compound 0.0316 µM); 90.5% and 105% and 85.8% (compound 0.1 µM); 76.6% and 90.5% and 111% (compound 0.316 µM); 80.5% and 76.2% and 111% (compound 1 µM); 103% and 84.1% and 91.1% (compound 3.16 µM); 93.4% and 63.7% and 69.9% (compound 10 µM). Where the note is “curve of compound”, the half-inhibitory concentration (IC50) is more than 10000 nM.

With `O=C(c1cc(Cc2n[nH]c(=O)c3ccccc23)ccc1F)N1CCN(C(=O)C2CC2)CC1` + Cc1cccc(N(C)C(=O)C2C(O)CCN2c2nc(C)cc(C(F)(F)F)c2C#N)c1, the half-maximal inhibitory concentration (IC50) by setting is: under setting [1], more than 10000 nM; under setting [2], more than 10000 nM; under setting [3], more than 10000 nM; under setting [4], more than 10000 nM; under setting [5], more than 10000 nM; under setting [6], 9210 nM. Also, the viability, T/C reads like this: under setting [7], 72.1%; under setting [8], 93.2%; under setting [9], 59.6%; under setting [10], 96.7%; under setting [11], 74.1%; under setting [12], 65.8%. The viability, T/C is, setting by setting: under setting [13], 76.3%; under setting [14], 81%; under setting [15], 73.3%; under setting [16], 97.3%; under setting [17], 71.1%; under setting [18], 63.7%. In addition, the viability, T/C was 92.8% under setting [19]; 108% under setting [20]; 89.8% under setting [21]; 89.6% under setting [22]; 69.4% under setting [23]; 58.1% under setting [24]. The viability, T/C runs as follows: under setting [25], 89.7%; under setting [26], 86.8%; under setting [27], 135%; under setting [28], 85.1%; under setting [29], 78.1%; under setting [30], 69.9%. Moreover, the viability, T/C under setting [31] is 88.5%; the viability, T/C under setting [32] was 99.2%; the viability, T/C under setting [33] is 97.5%; the viability, T/C under setting [34] is 85.2%; the viability, T/C under setting [35] was 68.8%; the viability, T/C under setting [36] is 54.5%. For the same compound, the viability, T/C was 95.3% under setting [37]; 78.7% under setting [38]; 87.2% under setting [39]; 88.2% under setting [40]; 82.3% under setting [41]; 47.5% under setting [42].

Turning to `COc1cc2cc(C(=O)CCC(=O)O)sc2cc1OC`, the viability, T/C by setting is: (compound 0.0316 µM) 106% and 94.9% and 129%; (compound 0.1 µM) 67.4% and 98.4% and 94.5%; (compound 0.316 µM) 126% and 89.9% and 95.3%; (compound 1 µM) 100% and 99.5% and 86.7%; (compound 3.16 µM) 84.1% and 107% and 110%; (compound 10 µM) 67.2% and 78.6% and 93.8%. Where the note is “curve of compound”, the concentration for half-maximal inhibition (IC50) is more than 10000 nM.
